ChEMBL document CHEMBL1148364, “Structure-based design, synthesis, and structure-activity relationship studies of novel non-nucleoside adenosine deaminase inhibitors” (J Med Chem, 2004)

System: not listed separately
Experiment: Oral bioavailability in rats at 10 mg/kg
Type: ADME, organism-based
Details: rat, in vivo

Row | Compound | bioavailability
1 | Cn1cc(CC[C@H](CO)n2cnc(C(N)=O)c2)c2cc(OCCCc3ccc(Cl)cc3)ccc21 | 10%

Target: T1, Adenosine deaminase (Homo sapiens, UniProt P00813)
T1 sequence (P00813 whole entry): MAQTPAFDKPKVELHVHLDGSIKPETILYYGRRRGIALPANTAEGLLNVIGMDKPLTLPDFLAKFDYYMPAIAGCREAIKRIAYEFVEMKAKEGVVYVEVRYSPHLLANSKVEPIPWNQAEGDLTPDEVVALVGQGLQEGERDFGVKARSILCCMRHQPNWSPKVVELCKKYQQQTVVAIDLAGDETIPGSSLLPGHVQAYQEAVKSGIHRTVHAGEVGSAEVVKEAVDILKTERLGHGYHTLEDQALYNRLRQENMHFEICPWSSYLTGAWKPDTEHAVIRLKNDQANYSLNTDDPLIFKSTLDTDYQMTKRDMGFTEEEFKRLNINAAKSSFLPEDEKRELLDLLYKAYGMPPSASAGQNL
Details: not given

Row | Compound | Ki
2 | NC(=O)c1cn([C@@H](CO)CCn2ccc3cc(OCCCc4ccccc4)ccc32)cn1 | 1900 nM
3 | NC(=O)c1cn([C@@H](CO)CCn2ccc3ccc(NC(=O)CCc4cccnc4)cc32)cn1 | 17 nM
4 | Cc1ccc(CCCC(=O)Nc2ccc3ccn(CC[C@H](CO)n4cnc(C(N)=O)c4)c3c2)cc1 | 34 nM
5 | NC(=O)c1cn([C@@H](CO)CCn2ccc3ccc(NC(=O)CCCCCc4ccccc4)cc32)cn1 | 91 nM
6 | CCCCCC(=O)Nc1ccc2ccn(CC[C@H](CO)n3cnc(C(N)=O)c3)c2c1 | 24 nM
7 | Cn1cc(CC[C@H](CO)n2cnc(C(N)=O)c2)c2cc(OCCCc3ccc(Cl)cc3)ccc21 | 4.9 nM
8 | NC(=O)c1cn([C@@H](CO)CCn2ccc3ccc(OCCCc4ccc(Cl)cc4)cc32)cn1 | 13 nM
9 | COc1ccc(CCC(=O)Nc2ccc3ccn(CC[C@H](CO)n4cnc(C(N)=O)c4)c3c2)cc1 | 57 nM
10 | CCCCCCOc1ccc2c(c1)c(CC[C@H](CO)n1cnc(C(N)=O)c1)cn2C | 13 nM
11 | Cc1ccc(CCC(=O)Nc2ccc3ccn(CC[C@H](CO)n4cnc(C(N)=O)c4)c3c2)cc1 | 38 nM
12 | NC(=O)c1cn([C@@H](CO)CCn2ccc3ccc(OCCCc4ccccc4)cc32)cn1 | 17 nM
13 | CCCCCCOc1ccc2c(ccn2CC[C@H](CO)n2cnc(C(N)=O)c2)c1 | 6200 nM
14 | CCCCOc1ccc2ccn(CC[C@H](CO)n3cnc(C(N)=O)c3)c2c1 | 240 nM
15 | CC(=O)Nc1ccc2ccn(CC[C@H](CO)n3cnc(C(N)=O)c3)c2c1 | 1300 nM
16 | NC(=O)c1cn([C@@H](CO)CCn2ccc3ccc(OCCCCc4ccccc4)cc32)cn1 | 12 nM
17 | CCCCCCOc1ccc2ccn(CC[C@H](CO)n3cnc(C(N)=O)c3)c2c1 | 55 nM

System: not listed separately
Experiment: AUC 0-8 hr value in rats at 10 mg/kg
Type: ADME, organism-based
Parameters: time < 8 hr, dose 10 mg/kg
Details: rat, plasma

Row | Compound | AUC(0-t) at 8 h
18 | Cn1cc(CC[C@H](CO)n2cnc(C(N)=O)c2)c2cc(OCCCc3ccc(Cl)cc3)ccc21 | 260 ng·h/mL

System: not listed separately
Experiment: Cmax value in rats at 10 mg/kg
Type: ADME, organism-based
Parameters: dose 10 mg/kg
Details: rat, in vivo

Row | Compound | Cmax
19 | Cn1cc(CC[C@H](CO)n2cnc(C(N)=O)c2)c2cc(OCCCc3ccc(Cl)cc3)ccc21 | 210 ng/mL
